PubChem BioAssay AID1963424 (Molecular Pharmacology Branch, DTP, NCI, 2024)
Where “and” joins values, the source holds several entries; their conditions need not be identical. Equal entries are not always repeated. Values belong to the compound of their own block, whether it stands above or below them.

System: 327498-153-R-J2-PDC complex spheroid growth, % test/control
Assay: Anticancer human tumor 327498-153-R-J2-PDC patient-derived uterine carcinosarcoma cell line growth inhibition [Asc]
Details: for viability, T/C: stronger effect = lower value
Procedure, shortened: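 Tumor cells were grown as complex spheroids with human endothelial cells (HUVEC) and human mesenchymal stem cells as stroma. Agents were tested alone and in combination, in half-log steps down from the clinical Cmax, or from 10 microM where Cmax was unknown.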
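Further: spheroids exposed to compound for 7 days after 3 days of growth.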
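Wherever viability, T/C is given: 100% = DMSO vehicle control wells.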

IC50 (curve of first compound, second compound 0.03 µM): > 1000 nM
IC50 (curve of first compound, second compound 0.0949 µM): 28.8 nM
IC50 (curve of first compound, second compound 0.3 µM): < 3.16 nM
IC50 (curve of first compound, second compound 0.949 µM): < 3.16 nM
IC50 (curve of first compound, second compound 3 µM): < 3.16 nM
SMILES: CCN1CCN(Cc2ccc(Nc3ncc(F)c(-c4cc(F)c5nc(C)n(C(C)C)c5c4)n3)nc2)CC1 + CCN1C(C(=O)NC23CCC(C(=O)O)(CC2)CC3)C(c2cccc(Cl)c2F)C2(C(=O)Nc3cc(Cl)ccc32)C12CCCCC2
viability, T/C (second compound 0.03 µM, first compound 0.00316 µM): 86.8%
viability, T/C (second compound 0.03 µM, first compound 0.01 µM): 84.2%
viability, T/C (second compound 0.03 µM, first compound 0.0316 µM): 77.1%
viability, T/C (second compound 0.03 µM, first compound 0.1 µM): 52.4%
viability, T/C (second compound 0.03 µM, first compound 0.316 µM): 48.4%
viability, T/C (second compound 0.03 µM, first compound 1 µM): 53.3%
viability, T/C (second compound 0.0949 µM, first compound 0.00316 µM): 68%
viability, T/C (second compound 0.0949 µM, first compound 0.01 µM): 68.4%
viability, T/C (second compound 0.0949 µM, first compound 0.0316 µM): 48.3%
viability, T/C (second compound 0.0949 µM, first compound 0.1 µM): 31.7%
viability, T/C (second compound 0.0949 µM, first compound 0.316 µM): 39.8%
viability, T/C (second compound 0.0949 µM, first compound 1 µM): 39%
viability, T/C (second compound 0.3 µM, first compound 0.00316 µM): 34.3%
viability, T/C (second compound 0.3 µM, first compound 0.01 µM): 26.6%
viability, T/C (second compound 0.3 µM, first compound 0.0316 µM): 18.2%
viability, T/C (second compound 0.3 µM, first compound 0.1 µM): 15.4%
viability, T/C (second compound 0.3 µM, first compound 0.316 µM): 17.9%
viability, T/C (second compound 0.3 µM, first compound 1 µM): 21.3%
viability, T/C (second compound 0.949 µM, first compound 0.00316 µM): 9.27%
viability, T/C (second compound 0.949 µM, first compound 0.01 µM): 8.09%
viability, T/C (second compound 0.949 µM, first compound 0.0316 µM): 6.59%
viability, T/C (second compound 0.949 µM, first compound 0.1 µM): 7.13%
viability, T/C (second compound 0.949 µM, first compound 0.316 µM): 8.2%
viability, T/C (second compound 0.949 µM, first compound 1 µM): 11.3%
viability, T/C (second compound 3 µM, first compound 0.00316 µM): 3.59%
viability, T/C (second compound 3 µM, first compound 0.01 µM): 3.67%
viability, T/C (second compound 3 µM, first compound 0.0316 µM): 2.51%
viability, T/C (second compound 3 µM, first compound 0.1 µM): 3.55%
viability, T/C (second compound 3 µM, first compound 0.316 µM): 4.83%
viability, T/C (second compound 3 µM, first compound 1 µM): 8.39%

IC50 (curve of compound): > 10000 nM
SMILES: C=CC(=O)N1CCN(c2nc(=O)n(-c3c(C)ccnc3C(C)C)c3nc(-c4c(O)cccc4F)c(F)cc23)C(C)C1 (configuration not stated)
viability, T/C (compound 0.0316 µM): 79% and 84.1% and 96.8%
viability, T/C (compound 0.1 µM): 81.7% and 85.2% and 87.5%
viability, T/C (compound 0.316 µM): 63.5% and 71.4% and 76%
viability, T/C (compound 1 µM): 71.2% and 69.4% and 84.9%
viability, T/C (compound 3.16 µM): 66.3% and 67.2% and 77.7%
viability, T/C (compound 10 µM): 60.9% and 59.4% and 66%
